Consider 1 substance from patent US20260166127A1, “USE OF ANALOG OF C-TYPE NATRIURETIC PEPTIDE FOR THE TREATMENT OF FGFR-RELATED BONE REPAIR AND BONE FORMATION IMPAIRMENT” (INSTITUT NATIONAL DE LA SANTÉ ET DE LA RECHERCHE MÉDICALE, priority 2021, published 2026).

For assay [1], the system named is HCH mouse model (Fgfr3^N534K/+), mandible bone repair. The assay is described as follows: Non-stabilized mandibular fracture repair in HCH mice treated with BMN111 (microCT, repair grade). Type of assay: in vivo. How it is done: Mandibular bone repair was studied in the HCH mouse model (Fgfr3^N534K/+). The experiments were performed in adult animals at 6 weeks of age, and mice were euthanized at 4 key points: during bone repair (10, 14, 21 days post fracture), and at the end of the normal bone healing process i.e. at 28 days post fracture.
Vertical mandibular fractures were performed in the ascending ramus region in Fgfr3^N534K/+ and Fgfr3^+/+ mice. This is a non-stabilized mandibular fracture protocol allowing to analyze the endochondral bone repair process.
Four batches (n=100) of Fgfr3^N534K/+ and Fgfr3^+/+ mandible fractures corresponding to different key stages of repair were studied (day 10, day 14, day 21, day 28). Using collagen type II (proliferative cartilage), type X (hypertrophic cartilage) and type I (bone) immunolabelling, we observed that the endochondral process is disturbed, we noted a delayed cartilage resorption, a reduction in the size of hypertrophic chondrocytes area and a defect in bone formation within the repair callus in Fgfr3^N534K/+ compared to Fgfr3^+/+. […] We observed the presence of pseudarthrosis (fibrosis in the callus) in Fgfr3^N534K/+ mice whereas we observed 100% of bone in Fgfr3^+/+ callus. Considering the quality of the newly formed bone at day 28, we defined four grades of repair and classified the mice according to their repair grade (from 1 to 4). The defective repair is significant in Fgfr3^N534K/+ compared to Fgfr3^+/+ (FIG. 1C).
In order to analyze the bone microarchitecture, we performed microCT scans. We observed an alteration in the microarchitecture of callus formation from day10 to day 28 Fgfr3^N534K/+ compared to Fgfr3^+/+.
HCH mice (Fgfr3^N534K/+) were treated with BMN111 (subcutaneous injection at 0.8 mg/kg, 3 times per week) from day 0 (facture of the mandible) to day 14 or day 28. The bone repair analyses were evaluated by microCT scans at day 14 and day 28 post fracture. […] BV/TV is increased at day 14 (+29%; p<0.005) in treated HCH mice (n=8) compared to untreated HCH mice (n=9). BV/TV is increased at day 28 post fracture and (+24% p<0.005) in the HCH mice (n=9) compared to the untreated HCH mice (n=14) (FIGS. 1A and 1B).

The test system of assay [2] is mouse model (Fgfr3^Y367C/+). The following applies: human ACH cells and Fgfr3^Y367C/+ mouse model; Lorget et al 2012; cited from earlier work.
[3] abbreviates: day 28 grade repair, treated HCH mice.
Setting [4] is: microCT, day 28 post fracture, treated (n=9) vs untreated (n=14) HCH mice, BMN111 s.c. 0.8 mg/kg 3 times per week, p<0.005.

In the case of “Vosoritide (PGQEHPNARKYKGANKKGLSKGCFGLKLDRIGSMSGLGC; chains of the INN, looked up) [BMN111, CNP analog, NPR2 agonist; formula C176H290N56O51S3, CAS Number 1480724-61-5]”, in assay [1] (setting [3]), the “Complete bone healing (grade 1), mice observed” value is recorded as 7/9 and the “Restoration of bone continuity, but presence of mild bone defects (grade 2), mice observed” value was 2/9. Besides, the BV/TV increase entry in assay [1] (microCT, day 14 post fracture, treated (n=8) vs untreated (n=9) HCH mice, BMN111 s.c. 0.8 mg/kg 3 times per week, p<0.005) was “+29%”. In addition, the callus volume in assay [1] (microCT, day 14 post fracture, treated vs untreated HCH mice, BMN111 s.c. 0.8 mg/kg 3 times per week) was “unchanged”. Moreover, in assay [1] (setting [4]), the BV/TV increase entry is listed as “+24%” and the “decrease of the volume of the callus” value was −30.9%. In addition, in assay [1] (treated HCH mice, mandible fracture callus), the “pseudarthrosis in the callus” value was “without pseudarthrosis”. The “effect on long bone growth and the skull” value in assay [2] is “beneficial effect”.
